The values that follow are results of earlier work, collected in patent US20090264528A1, “SERINE PALMITOYLCOA TRANSFERASE (SPT) INHIBITION BY MYRIOCIN OR GENETIC DEFICIENCY DECREASES CHOLESTEROL ABSORPTION” (The Research Foundation of State University of New York, priority 2008, published 2009).

The conditions of the data set: apoE KO mice; cited from earlier work.

Consider `CCCCCCCCc1ccc(CCC(N)(CO)CO)cc1` [FTY720], for which the plasma cholesterol levels entry is reported as “increases”.
